Two compounds from ChEMBL document CHEMBL1275564, “Minimal pharmacokinetic interaction between the human immunodeficiency virus nonnucleoside reverse transcriptase inhibitor etravirine and the integrase inhibitor raltegravir in healthy subjects” (Antimicrob Agents Chemother, 2008) can be followed below.

Holding throughout (type): ADME, organism-based
Series [1] is described as follows: Trough drug concentration at 12 hrs in healthy human plasma at 400 mg, po twice a day for 4 days by reverse-phase HPLC-MS method. The settings on record: read-out: Cmin.
Series [2] in a line: AUC (0 to 12 hrs) in healthy human plasma at 400 mg, po twice a day for 4 days coadministered with 200mg of etravirine twice a day for 4 days by reverse-phase HPLC-MS method. The arrangement: time < 12 hr, dose 400 mg, route oral.
Series [3] can be described thus: Cmax in healthy human plasma at 400 mg, po twice a day for 4 days coadministered with 200mg of etravirine twice a day for 4 days by reverse-phase HPLC-MS method. Further details: dose 400 mg, route oral.
Series [4] in a line: Trough drug concentration at 12 hrs in healthy human plasma at 400 mg, po twice a day for 4 days coadministered with 200mg of etravirine twice a day for 4 days by reverse-phase HPLC-MS method. The note with it: read-out: Cmin.
The nature of series [5]: Tmax in healthy human plasma at 400 mg, po twice a day for 4 days coadministered with 200mg of etravirine twice a day for 4 days by reverse-phase HPLC-MS method.
Series [6] in a line: Tmax in healthy human plasma at 400 mg, po twice a day for 4 days by reverse-phase HPLC-MS method.
Series [7] is described as follows: Cmax in healthy human plasma at 400 mg, po twice a day for 4 days by reverse-phase HPLC-MS method. Further details: dose 400 mg, route oral.
Series [8] in a line: AUC (0 to 12 hrs) in healthy human plasma at 400 mg, po twice a day for 4 days by reverse-phase HPLC-MS method. Further details: dose 400 mg, time < 12 hr, route oral.
The nature of series [9]: Tmax in healthy human plasma at 200 mg, po twice a day for 8 days by reverse-phase HPLC-MS method.
The nature of series [10]: Cmax in healthy human plasma at 200 mg, po twice a day for 4 days coadministered with 400 mg of raltegravir, po twice a day for 4 days by reverse-phase HPLC-MS method. Further details: dose 200 mg, route oral.
Series [11] can be described thus: Tmax in healthy human plasma at 200 mg, po twice a day for 4 days coadministered with 400 mg of raltegravir, po twice a day for 4 days by reverse-phase HPLC-MS method.
A short description of series [12]: Trough drug concentration at 12 hrs in healthy human plasma at 200 mg, po twice a day for 8 days by reverse-phase HPLC-MS method. The settings on record: read-out: Cmin.
Series [13] in a line: Cmax in healthy human plasma at 200 mg, po twice a day for 8 days by reverse-phase HPLC-MS method. Further details: dose 200 mg, route oral.
A short description of series [14]: Trough drug concentration at 12 hrs in healthy human plasma at 200 mg, po twice a day for 4 days coadministered with 400 mg of raltegravir, po twice a day for 4 days by reverse-phase HPLC-MS method. The settings on record: read-out: Cmin.
Series [15] deals with Homo sapiens. The series can be described thus: AUC (0 to 12 hrs) in healthy human plasma at 200 mg, po twice a day for 8 days by reverse-phase HPLC-MS method. Further details: time < 12 hr, dose 200 mg, route oral. The note with it: in vivo.
The subject of series [16] is Homo sapiens. Nature of the series: AUC (0 to 12 hrs) in healthy human plasma at 200 mg, po twice a day for 4 days coadministered with 400 mg of raltegravir, po twice a day for 4 days by reverse-phase HPLC-MS method. The arrangement: time < 12 hr, dose 200 mg, route oral. The settings on record: in vivo.

As to `Cc1nnc(C(=O)NC(C)(C)c2nc(C(=O)NCc3ccc(F)cc3)c(O)c(=O)n2C)o1` [RALTEGRAVIR], the concentration at 12 h was 216 nM in [1] and 142 nM in series [4]. Also, the AUC at 12 h in [2] was 6.28 µM·h; in series [8], 7.01 µM·h. Moreover, the Cmax in series [3] was determined as 1540 nM; in [7], 1740 nM. Also, the Tmax in series [5] came out at 3 h; in series [6], 1.5 h.
As for `Cc1cc(C#N)cc(C)c1Oc1nc(Nc2ccc(C#N)cc2)nc(N)c1Br` [ETRAVIRINE], the Tmax in series [9] and in series [11] was 4 h in each case. The highest concentration (Cmax) in series [10] came to 766 ng/mL; in series [13], 734 ng/mL. Also, the concentration at 12 h was found to be 373 ng/mL in series [12] and 439 ng/mL in series [14]. The AUC in the series with Homo sapiens [15] turned out to be 6220 ng·h/mL; in the series with Homo sapiens [16], 6810 ng·h/mL.
